Test results published in patent US10195156B2, “Compounds and compositions for intracellular delivery of agents” (ModernaTX, Inc., priority 2015, dated 2019).

Experiments:
[1] = system: modified luciferase expression; experiment: Expression of Luc in different organs (liver, lung, spleen, femur) 6 hours after intravenous administration; type: in vivo; conditions: i.v., 0.5 mpk
Procedure: The efficacy of the nanoparticle compositions presented in Tables 1, 1a, 17-1, 19-1, 20-1 and 21-1 was further evaluated by measuring the expression of modified luciferase in the liver, lung, spleen, and femur upon administration of a given composition. Formulations were administered intravenously to mice (n=3) at a dosage of 0.5 mpk and bioluminescence measured after 6 hours. The standard MC3 formulation and a PBS control were also tested.

[2] = Encapsulation efficiency of RNA (QUANT-IT RIBOGREEN RNA assay); type: physicochemical
Summary of the method: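 RiboGreen fluorescence (ex ~480, em ~520 nm) measured after 15 min at 37 °C on samples at ~5 μg/mL in TE, pH 7.5, ± 2% Triton X-100 solution. After blank subtraction, free RNA is given as intact-sample signal divided by disrupted-sample signal.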

IP-10 = experiment: Cytokine production induced by sample formulations: IP-10; type: in vivo; conditions: mice, i.v., 0.5 mpk, 6 hours; for IP-10: in pg/mL (unit assumed)
Text: (§1) The introduction of foreign material into a mammalian body induces an innate immune response that promotes cytokine production. Such immune responses to, for example, nanoparticle compositions including therapeutic and/or prophylactic agents, are undesirable. The induction of certain cytokines is thus measured to evaluate the […] of nanoparticle compositions. The concentrations of various cytokines in mice upon intravenous administration of nanoparticle compositions presented in Tables 1, 1a, 17-1, 19-1, 20-1 and 21-1 at a dosage of 0.5 mpk was measured at 6 hours. The standard MC3 formulation and a PBS control were also tested.

[3] = system: luciferase (Luc) mRNA expression; experiment: Expression of Luc induced by sample formulations, whole-body bioluminescence after intravenous administration; type: in vivo; conditions: mice, i.v., 0.5 mg/kg
Summary of the method: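 Read-out is whole-body bioluminescence at 3, 6 and 24 h after a single intravenous dose of 0.5 mg/kg Luc mRNA in nanoparticle formulations. Groups of n=6 mice; PBS and standard MC3 formulation as references.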

[4] = Particle size and polydispersity index of nanoparticle compositions (Zetasizer Nano ZS); type: physicochemical
Summary of the method: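 Measured in 1×PBS by Zetasizer Nano ZS.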

[5] = pKa of nanoparticle compositions; type: physicochemical
IL-6 = experiment: Cytokine production induced by sample formulations: IL-6; type: in vivo; conditions: mice, i.v., 0.5 mpk, 6 hours; for IL-6: in pg/mL (unit assumed)
Text: as §1

[6] = Table 20-1, rows without footnote mark
[7] = Table 1, rows without footnote mark

Compound | EE (%) [2, 6] | IP-10 (IP-10; Table 20-4, formula (20-I)) | IP-10 induction, rank or comparison with IL-6 (in words) (IP-10) | PDI [4, 6] | Size (nm) [4, 6] | pKa [5, 6] | IL-6 (IL-6; Table 20-4, formula (20-I)) | Total Flux Liver ([1]; Table 20-3, mice) | Total Flux Lung ([1]; Table 20-3, mice) | Total Flux Spleen ([1]; Table 20-3, mice) | Total Flux 3 hours ([3]; Table 20-2, 3 hours) | Total Flux 6 hours ([3]; Table 20-2) | Total Flux 24 hours ([3]; Table 20-2) | Total Flux Femur ([1]; Table 20-3, mice) | other results
CCCCC/C=C\C/C=C\CCCCCCCCN(CCO)CCCCCCCCC [Compound 17-3, 2-(Nonyl((9Z,12Z)-octadeca-9,12-dien-1-yl)amino)ethan-1-ol] | – | – | lowest IP-10 levels | – | – | – | – | – | – | – | – | – | – | – | Total Flux Liver ([1]; Table 17-3, mice): 2.51E+05; Total Flux Lung ([1]; Table 17-3, mice): 1.56E+04; Total Flux Spleen ([1]; Table 17-3, mice): 1.02E+05; EE (%) ([2]; Table 17-1): 82.1%; IP-10 (IP-10; Table 17-4): 66.8; Total Flux 3 hours ([3]; Table 17-2, 3 hours): 5.58E+05; Total Flux 6 hours ([3]; Table 17-2): 1.38E+06; Total Flux 24 hours ([3]; Table 17-2): 9.90E+05; PDI ([4]; Table 17-1): 0.095; Size (nm) ([4]; Table 17-1): 117.9 nm; pKa ([5]; Table 17-1): 6.69; IL-6 (IL-6; Table 17-4): 6.97; IL-6 induction, rank within the named table (in words) (IL-6): lowest IL-6 levels
CCCCCCCCCN(CCCCCCCCC)CCN(CCCCCCCCC)CCN1CCN(CCN(CCCCCCCCC)CCCCCCCCC)CC1 [Compound 18, N^1-(2-(4-(2-(Dinonylamino)ethyl)piperazin-1-yl)ethyl)-N^1,N^2,N^2-trinonylethane-1,2-diamine] | – | – | – | – | – | – | – | – | – | – | – | – | – | – | Total Flux Femur ([1]; Table 3, mice): 3.31E+06; Total Flux Liver ([1]; Table 3, mice): 3.91E+09; Total Flux Lung ([1]; Table 3, mice): 1.87E+07; Total Flux Spleen ([1]; Table 3, mice): 1.60E+07; EE (%) [2, 7]: 98.4%; IP-10 (IP-10; Table 4): 655; Total Flux 3 hours ([3]; Table 2, 3 hours): 2.13E+10; Total Flux 6 hours ([3]; Table 2): 1.76E+10; Total Flux 24 hours ([3]; Table 2): 7.00E+08; total flux after 3 hours, rank within the named table (in words) ([3]; 3 hours): highest flux after 3 hours; PDI [4, 7]: 0.120; Size (nm) ([4]; Table 1, rows without footnote mark (lipid:DOPE:cholesterol:PEG-DMG 40:20:38.5:1.5, Luc mRNA; MC3 standard formulation)): 76.7 nm; pKa [5, 7]: 6.17; IL-6 (IL-6; Table 4): 263

The next lines start with results.

EE (%) [2, 6] | IP-10 (IP-10; Table 20-4, formula (20-I)) | IP-10 induction, rank or comparison with IL-6 (in words) (IP-10) | PDI [4, 6] | Size (nm) [4, 6] | pKa [5, 6] | IL-6 (IL-6; Table 20-4, formula (20-I)) | Compound | Total Flux Liver ([1]; Table 20-3, mice) | Total Flux Lung ([1]; Table 20-3, mice) | Total Flux Spleen ([1]; Table 20-3, mice) | Total Flux 3 hours ([3]; Table 20-2, 3 hours) | Total Flux 6 hours ([3]; Table 20-2) | Total Flux 24 hours ([3]; Table 20-2) | Total Flux Femur ([1]; Table 20-3, mice) | other results
94.5% | 8436.6 | highest | 0.215 | 124.0 nm | 5.89 | 311.1 | CCCCC/C=C\C/C=C\CCCCCCCCN(CCO)CCN(CCCCCCCC/C=C\C/C=C\CCCCC)CCCCCCCC/C=C\C/C=C\CCCCC [Compound 20-14, 2-((2-(Di((9Z,12Z)-octadeca-9,12-dien-1-yl)amino)ethyl)((9Z,12Z)-octadeca-9,12-dien-1-yl)amino)ethan-1-ol] | 5.22E+07 | 1.08E+05 | 7.03E+05 | 1.76E+09 | 4.07E+08 | 8.10E+07 | – | –
91.6% | 522.9 | – | 0.130 | 71.8 nm | 6.60 | 118.5 | CCCCCCCCCCCCN(CCO)CCN(CCCCCCCCCCCC)CCCCCC(=O)OCCCCC [Compound 20-2, Pentyl 6-(dodecyl(2-(dodecyl(2-hydroxyethyl)amino)ethyl)amino)hexanoate] | 6.01E+08 | 4.52E+06 | 3.12E+07 | 1.35E+09 | 2.18E+09 | 6.49E+07 | 1.07E+06 | –
95.9% | 271.1 | – | 0.130 | 64.5 nm | 6.22 | 152.1 | CCCCCCCCCCCCN(CCCCCCCCCCCC)CCN(CCO)CCCCCCCC(=O)OC(CCCCCCCC)CCCCCCCC [Compound 20-9, Heptadecan-9-yl 8-((2-(didodecylamino)ethyl)(2-hydroxyethyl)amino)octanoate] | 1.57E+08 | 1.30E+06 | 5.11E+06 | 3.65E+08 | 6.91E+08 | 4.81E+07 | 2.89E+05 | particle size, rank within the named table (in words) ([4]; comparison amongst compositions): smallest particles
